The target in the assay is T1, Tyrosinase (Agaricus bisporus, UniProt O42713).
T1 sequence (O42713 whole entry): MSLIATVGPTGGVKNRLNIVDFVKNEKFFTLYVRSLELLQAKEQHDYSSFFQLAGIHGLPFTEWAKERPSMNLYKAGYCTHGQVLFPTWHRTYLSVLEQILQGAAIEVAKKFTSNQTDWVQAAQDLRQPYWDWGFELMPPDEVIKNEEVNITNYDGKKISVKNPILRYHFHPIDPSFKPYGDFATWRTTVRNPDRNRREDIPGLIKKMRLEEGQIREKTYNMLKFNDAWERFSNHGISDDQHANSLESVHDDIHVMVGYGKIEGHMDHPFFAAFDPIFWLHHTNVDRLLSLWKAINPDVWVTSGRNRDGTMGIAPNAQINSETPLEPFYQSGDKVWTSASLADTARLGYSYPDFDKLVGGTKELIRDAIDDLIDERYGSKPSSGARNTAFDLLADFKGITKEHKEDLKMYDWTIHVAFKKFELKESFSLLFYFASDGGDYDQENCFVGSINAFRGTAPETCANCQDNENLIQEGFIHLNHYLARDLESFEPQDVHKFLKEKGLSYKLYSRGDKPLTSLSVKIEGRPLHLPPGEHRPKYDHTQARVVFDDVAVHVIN
Nature of the assay: Inhibition of mushroom tyrosinase using L-DOPA as substrate after 10 mins.
The term IC50 denotes the concentration at which inhibition is half-maximal. For `Oc1ccc(CCc2ccc(F)cc2)c(O)c1`, the IC50 worked out at 49.6 µM. For `Oc1ccc(CCc2ccccc2Cl)c(O)c1`, the IC50 came to 33.8 µM. As for `COc1ccc(CCc2ccc(O)cc2O)cc1`, the IC50 was 31.6 µM. Take `Oc1ccc(CCc2ccc(O)cc2O)cc1`: it took 8.44 µM to reach half-maximal inhibition (IC50). Take `Oc1ccc(CCc2ccccc2)c(O)c1`: the IC50 was determined as 30.6 µM.

These data come from ChEMBL document CHEMBL2203088, “Design, synthesis and molecular simulation studies of dihydrostilbene derivatives as potent tyrosinase inhibitors” (Bioorg Med Chem Lett, 2012).
